Key:
MIN6 cell [1] = test: Insulin secretion promoting activity for cultured β-cells, in the presence of 14.5 mmol/L glucose; format: cell-based; details: none: 148.4
Experimental: (§1) Further, the insulin secretion of the MIN6 cell is prompted in response to sulfonylurea-agents such as glibenclamide, which are used as a medicament for treatment of diabetes (Cellular Signalling, vol. 5, p. 777-786, 1993).
Culture of the MIN6 cells above and insulin secretion test utilizing the MIN6 cells were performed according to the methods described in Diabetologia, vol. 36, p. 1139-1145, 1993. The effect of a compound on the insulin secretion in the presence of 14.5 mmol/L glucose was determined by measuring insulin amounts in cell culture supernatants collected as follows. MIN6 cells cultured on a 24-well plate were washed twice by using 1 mL of Buffer A (119 mmol/L sodium chloride, 4.74 mmol/L potassium chloride, 2.54 mmol/L calcium chloride, 1.19 mmol/L magnesium sulfate, 1.19 mmol/L potassium dihydrogenphosphate, 10 mmol/L 2-[4-(2-hydroxyethyl)-1-piperazinyl]ethanesulfonic acid, and 0.1% bovine serum albumin, pH 7.3) containing 2 mmol/L glucose, and then were incubated in 1 mL of Buffer A containing 2 mmol/L glucose at 37° C. for 45 minutes. After the incubation, the culture supernatant was changed to Buffer A (0.9 mL) containing a test compound at various concentrations and 2 mmol/L glucose, and the cells were further incubated at 37° C. for 15 minutes. […]

MIN6 cell [2] = test: Insulin secretion promoting activity for cultured β-cells, in the presence of 5 mmol/L glucose; format: cell-based; details: for Insulin secretion amount (ng/mL) Avg: 5 mmol/L glucose, None: 51.2; for secretion promoting action at low glucose concentration (in words): glucose at a low concentration (5 mmol/L)
Experimental: as §1
Separately, the effect of a compound on the insulin secretion in the presence of 5 mmol/L glucose was determined by measuring insulin amounts in cell culture supernatants collected as follows. MIN6 cells cultured on a 24-well plate were washed twice by using 1 mL of Buffer A containing 5 mmol/L glucose, and then the culture supernatant was changed to Buffer A (0.9 mL) containing a test compound at various concentrations and 5 mmol/L glucose. Then, the cells were incubated at 37° C. for 45 minutes (final glucose concentration: 5 mmol/L), and the culture supernatant was collected.
After the culture supernatant was diluted with a phosphate buffer containing 1% bovine serum albumin, 0.1% Tween 20, 0.12% disodium ethylenediaminetetraacetate (EDTA), and 0.1% sodium azide, antibody-reactive insulin secreted in the culture supernatant was qualified by enzyme immunoassay or radio immunoassay. The insulin level was indicated as the amount of human insulin (ng/mL). The results are indicated as average (avg) of 3 to 4 samples with standard error values (se).

SMILES	Insulin secretion amount (ng/mL) avg (MIN6 cell [1]; drug concentration 10 μmol/L) [ng/mL]	Insulin secretion amount (ng/mL) Avg (MIN6 cell [2]; drug concentration 10 μmol/L) [ng/mL]	secretion promoting action at low glucose concentration (in words) (MIN6 cell [2])	Insulin secretion amount (ng/mL) avg (MIN6 cell [1]; drug concentration 0.1 μmol/L) [ng/mL]	Insulin secretion amount (ng/mL) Avg (MIN6 cell [2]; drug concentration 0.1 μmol/L) [ng/mL]
CC(C)[C@H]1CC[C@H](C(=O)N[C@H](Cc2ccccc2)C(=O)O)CC1 [AY4166]	195.1	170.8	showed marked secretion promoting action	–	–
COc1ccc(Cl)cc1C(=O)NCCc1ccc(S(=O)(=O)NC(=O)NC2CCCCC2)cc1 [Glibenclamide]	–	–	showed marked secretion promoting action	177.8	156.8
